Reference: US20240360175A1, “PEPTIDE DERIVATIVES AND RELATED USES AS OREXIN AGONISTS” (Centessa Pharmaceuticals (UK) Limited, priority 2021, published 2024)
Like-named read-outs stand apart in the source and are kept apart here. Square brackets hold non-standard residues; d marks the D form. Ends that are not written are not given here. Peptide text beside a SMILES is read from it. * marks the point of attachment. Malonyl(2,2-Me2,histaminyl) = CC(C)(C(=O)NCCc1cnc[nH]1)C(=O)*; hArg(Et2) = CCN=C(NCC)NCCCC[C@H](N)C(=O)O; Gly(NCH2CH2Ph) = O=C(O)CNCCc1ccccc1; PEG6 = NCCOCCOCCOCCOCCOCCOCCC(=O)O; Hyp = O=C(O)[C@@H]1C[C@@H](O)CN1; Hpg = N[C@H](C(=O)O)c1ccc(O)cc1; NMeN = CN[C@@H](CC(N)=O)C(=O)O; Aoc(2) = CCCCCC[C@H](N)C(=O)O; NMeL = CN[C@@H](CC(C)C)C(=O)O; Ahp(2) = CCCCC[C@H](N)C(=O)O; Phg = N[C@H](C(=O)O)c1ccccc1; Nle = CCCC[C@H](N)C(=O)O

Key:
[1] = target: T1, human orexin type 1 receptor (hOX1R) (Homo sapiens, UniProt O43613); assay: Measurement of orexin type 1 receptor agonist activity (FLIPR TETRA intracellular Ca2+ fluorescence); assay type: cell-based
T1 construct: expressed in transfected cells
T1 sequence (O43613 1-425): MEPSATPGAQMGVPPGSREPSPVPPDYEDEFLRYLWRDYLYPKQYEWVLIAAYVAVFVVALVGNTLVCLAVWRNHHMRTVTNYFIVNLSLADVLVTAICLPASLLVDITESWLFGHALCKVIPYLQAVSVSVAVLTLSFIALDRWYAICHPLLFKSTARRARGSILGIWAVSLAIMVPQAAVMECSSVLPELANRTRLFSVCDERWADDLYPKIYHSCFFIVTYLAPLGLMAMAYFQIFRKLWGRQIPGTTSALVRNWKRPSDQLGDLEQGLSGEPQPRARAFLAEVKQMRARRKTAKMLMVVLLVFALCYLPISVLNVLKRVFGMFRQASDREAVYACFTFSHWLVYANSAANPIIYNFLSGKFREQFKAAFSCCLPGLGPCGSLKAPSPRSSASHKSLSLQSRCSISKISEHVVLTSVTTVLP
Protocol: (§1) Stable cell line generation. Obtainment of cells stably expressing either human orexin type 2 or human orexin type 1 receptor: to obtain a stable cell line the Orexin receptor cDNA was inserted into pcDNA3.1(+) plasmid vector and clones identified by G418 drug resistance selection. […] A single clone for OX2R—CHO and OX1R—CHO were grown in bulk and frozen to generate a cell bank for routine screening.
(§2) Measurement of orexin type 1 receptor agonist activity. Chinese hamster ovary (CHO) cells expressing human orexin type 1 receptor (hOX1R) were seeded in each well of 384 well black clear bottom plates (BD Flacon) at 10,000 cells per well and cultured for 24 h in an Ham's F12 (Gibco) medium containing 10% fetal calf serum (Sigma Aldrich) under the conditions of 37° C., 5% CO2. After removal of the medium, 50 μL of assay buffer 1 (0.1% bovine serum albumin (Sigma Aldrich), 20 mM HEPES (Molecular Dimensions), […] probenecid (Sigma Aldrich), 1× Calcium 5 dye (Molecular Devices) in Hank's balanced salt solution (Invitrogen)) was added, and the cells were incubated for 60 min under the conditions of 37° C., 5% CO2. A test peptide was dissolved in dimethyl sulfoxide (Sigma Aldrich) to 1 mM, and then diluted with assay buffer 2 (20 mM HEPES, Hank's balanced salt solution, 0.1% bovine serum albumin). For the reaction, a test peptide solution (10 μl) was added using Fluorescent Imaging Plate Reader TETRA (FLIPR TETRA: manufactured by Molecular Devices), a fluorescence value (excitation wavelength 488 nm, measurement wavelength 570 nm) of each well was measured every one second for 2 min, and the agonist activity was determined using the area of the fluorescence value as an indicator of intracellular Ca^2+ concentration. The agonist activity of the test peptide was calculated assuming that the fluorescence value of the well added with only the dilution buffer was 0% and the fluorescence value of the well added with 10 nM human orexin A (Tocris) buffer was 100%. As used herein, Emax indicates the value at 1 μM concentration when orexin A is converted to a full agonist (maximum value of agonist activity: 100%).

[2] = target: T2, human orexin type 2 receptor (hOX2R) (Homo sapiens, UniProt O43614); assay: Measurement of orexin type 2 receptor agonist activity (FLIPR TETRA intracellular Ca2+ fluorescence); assay type: cell-based
T2 construct: expressed in transfected cells
T2 sequence (O43614 1-444): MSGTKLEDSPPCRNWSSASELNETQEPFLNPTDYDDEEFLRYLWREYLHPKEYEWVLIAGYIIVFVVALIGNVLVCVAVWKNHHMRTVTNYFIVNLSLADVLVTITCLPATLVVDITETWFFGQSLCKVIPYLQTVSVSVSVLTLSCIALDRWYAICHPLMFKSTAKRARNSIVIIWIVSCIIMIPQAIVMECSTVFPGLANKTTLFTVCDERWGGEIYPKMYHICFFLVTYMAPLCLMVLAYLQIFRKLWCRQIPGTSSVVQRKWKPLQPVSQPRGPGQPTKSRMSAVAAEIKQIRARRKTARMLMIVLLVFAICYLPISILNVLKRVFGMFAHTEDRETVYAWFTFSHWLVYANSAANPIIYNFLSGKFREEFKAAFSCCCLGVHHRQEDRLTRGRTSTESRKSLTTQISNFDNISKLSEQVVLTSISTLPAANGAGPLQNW
Protocol: as §1
as §2, with “type 2” for “type 1”, “receptor (hOX2R)” for “receptor (hOX1R) were”

OX2R [3] = settings: subcutaneous, cited from earlier work
individuals with NT1 = settings: initial clinical studies; cited from earlier work
OX2R [4] = target: T3, OX2R (Mus musculus, UniProt P58308); settings: cited from earlier work
T3 construct: host or cells: mice in vivo (WT, orexin ligand-deficient, NT1 model, OX2R-knockout)
T3 sequence (P58308 1-460): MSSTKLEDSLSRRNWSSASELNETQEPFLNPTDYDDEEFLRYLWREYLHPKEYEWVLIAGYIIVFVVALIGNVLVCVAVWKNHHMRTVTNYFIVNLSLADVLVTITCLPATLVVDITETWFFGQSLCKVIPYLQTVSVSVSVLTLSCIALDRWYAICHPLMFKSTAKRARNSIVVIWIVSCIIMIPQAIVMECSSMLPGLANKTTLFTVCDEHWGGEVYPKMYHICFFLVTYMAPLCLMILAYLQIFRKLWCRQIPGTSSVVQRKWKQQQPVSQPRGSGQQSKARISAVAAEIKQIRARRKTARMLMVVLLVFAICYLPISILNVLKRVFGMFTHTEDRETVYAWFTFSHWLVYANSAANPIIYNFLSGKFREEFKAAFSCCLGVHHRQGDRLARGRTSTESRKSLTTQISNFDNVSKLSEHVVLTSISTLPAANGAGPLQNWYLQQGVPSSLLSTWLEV

[5] = system: orexin-neuron ablated mice; settings: ICV; cited from earlier work
[6] = CHO cells expressing hOX1R, agonist activity, Ca2+ fluorescence, read-out: hOX1 pEC50 (converted)
[7] = CHO cells expressing hOX2R, agonist activity, Ca2+ fluorescence, read-out: hOX2 pEC50 (converted)

Question: For `CCCCCC[C@H](NC(=O)[C@@H](NC(=O)[C@H](CC(C)C)NC(=O)[C@@H](NC(=O)CNC(=O)[C@@H](NC(=O)[C@H](C)NC(=O)[C@H](Cc1c[nH]cn1)NC(=O)[C@H](CC(N)=O)NC(=O)CN(CCc1ccccc1)C(=O)[C@H](CCCCNC(=NCC)NCC)NC(=O)C(C)(C)C(=O)NCCc1cnc[nH]1)c1ccc(O)cc1)[C@@H](C)CC)[C@@H](C)O)C(N)=O` [Peptide 25] ({Malonyl(2,2-Me2,histaminyl)}-[hArg(Et2)][Gly(NCH2CH2Ph)]NHA[Hpg]GILT[Aoc(2)]-NH2), which EC50 [1] is on record?
Answer: > 10 nM

Question: What about the EC50 [2] of the same molecule?
Answer: < 0.1 nM

Question: Which results are given for `CCCCCC[C@H](NC(=O)[C@@H](NC(=O)[C@H](CC(C)C)NC(=O)[C@@H](NC(=O)CNC(=O)[C@@H](NC(=O)[C@H](C)NC(=O)[C@H](Cc1c[nH]cn1)NC(=O)[C@H](CC(N)=O)NC(=O)CN(CCc1ccccc1)C(=O)[C@H](CCCCNC(=NCC)NCC)NC(=O)[C@H](CCC(N)=O)NC(=O)C(C)(C)C(=O)NCCc1cnc[nH]1)c1ccccc1)[C@@H](C)CC)[C@@H](C)O)C(N)=O` [Peptide 26] ({Malonyl(2,2-Me2,histaminyl)}-Q[hArg(Et2)][Gly(NCH2CH2Ph)]NHA[Phg]GILT[Aoc(2)]-NH2)?
Answer: EC50 [1]: > 10 nM; EC50 [2]: < 0.1 nM

Question: Which EC50 [1, 6] does the source give for `CCCCC[C@H](NC(=O)[C@@H](NC(=O)[C@H](CC(C)C)NC(=O)[C@@H](NC(=O)CNC(=O)[C@@H](NC(=O)[C@H](C)NC(=O)[C@@H]1C[C@@H](O)CN1C(=O)[C@H](CC(N)=O)NC(=O)CN(CCc1ccccc1)C(=O)[C@H](CCCNC(=N)N)NC(=O)CCOCCOCCOCCOCCOCCOCCN)c1ccccc1)[C@@H](C)CC)[C@@H](C)O)C(N)=O` [Peptide 27] (H-[PEG6]R[Gly(NCH2CH2Ph)]N[Hyp]A[Phg]GILT[Ahp(2)]-NH2) here?
Answer: > 10 nM

Question: And the EC50 [2, 7]?
Answer: < 0.1 nM

Question: With `CCCC[C@H](NC(=O)[C@@H](NC(=O)[C@H](CC(C)C)NC(=O)[C@@H](NC(=O)CNC(=O)[C@@H](NC(=O)[C@H](C)NC(=O)[C@@H]1C[C@@H](O)CN1C(=O)[C@H](CC(N)=O)NC(=O)CN(CCc1ccccc1)C(=O)[C@H](CCCNC(=N)N)NC(=O)CCOCCOCCOCCOCCOCCOCCN)c1ccccc1)[C@@H](C)CC)[C@@H](C)O)C(N)=O` [Peptide 28] (H-[PEG6]R[Gly(NCH2CH2Ph)]N[Hyp]A[Phg]GILT[Nle]-NH2) as the molecule, how does the EC50 [1, 6] read?
Answer: > 10 nM

Question: What about the EC50 [2, 7] of the same molecule?
Answer: < 0.1 nM

Question: Which results are given for `CCCCCC[C@H](NC(=O)[C@@H](NC(=O)[C@H](CC(C)C)N(C)C(=O)[C@@H](NC(=O)CNC(=O)[C@@H](NC(=O)[C@H](C)NC(=O)[C@@H]1C[C@@H](O)CN1C(=O)[C@H](CC(N)=O)NC(=O)CN(CCc1ccccc1)C(=O)[C@H](CCCNC(=N)N)NC(=O)CCOCCOCCOCCOCCOCCOCCN)c1ccccc1)[C@@H](C)CC)[C@@H](C)O)C(N)=O` [Peptide 29] (H-[PEG6]R[Gly(NCH2CH2Ph)]N[Hyp]A[Phg]GI[NMeL]T[Aoc(2)]-NH2)?
Answer: EC50 [1, 6]: > 10 nM; EC50 [2, 7]: < 0.1 nM

Question: Which results are given for `CCCCC[C@H](NC(=O)[C@@H](NC(=O)[C@H](CC(C)C)NC(=O)[C@@H](NC(=O)CNC(=O)[C@@H](NC(=O)[C@H](C)NC(=O)[C@@H]1C[C@@H](O)CN1C(=O)[C@H](CC(N)=O)N(C)C(=O)CN(CCc1ccccc1)C(=O)[C@H](CCCNC(=N)N)NC(=O)CCOCCOCCOCCOCCOCCOCCN)c1ccccc1)[C@@H](C)CC)[C@@H](C)O)C(N)=O` [Peptide 30] (H-[PEG6]R[Gly(NCH2CH2Ph)][NMeN][Hyp]A[Phg]GILT[Ahp(2)]-NH2)?
Answer: EC50 [1, 6]: > 10 nM; EC50 [2, 7]: < 0.1 nM

Question: Which results are given for `CCCCCC[C@H](NC(=O)[C@@H](NC(=O)[C@H](CC(C)C)N(C)C(=O)[C@@H](NC(=O)CNC(=O)[C@@H](NC(=O)[C@H](C)NC(=O)[C@@H]1C[C@@H](O)CN1C(=O)[C@H](CC(N)=O)N(C)C(=O)CN(CCc1ccccc1)C(=O)[C@H](CCCNC(=N)N)NC(=O)CCOCCOCCOCCOCCOCCOCCN)c1ccccc1)[C@@H](C)CC)[C@@H](C)O)C(N)=O` [Peptide 31] (H-[PEG6]R[Gly(NCH2CH2Ph)][NMeN][Hyp]A[Phg]GI[NMeL]T[Aoc(2)]-NH2)?
Answer: EC50 [1, 6]: > 10 nM; EC50 [2, 7]: < 0.1 nM

Question: Which results are given for `COC(=O)N1CCC[C@H](NS(C)(=O)=O)[C@@H]1CO[C@H]1CC[C@@H](c2ccccc2)CC1` [TAK-925]?
Answer: wakefulness (OX2R [3]; OX2R-knockout mice): not in OX2R-knockout mice; wakefulness (OX2R [3]; WT mice): modestly increased wakefulness; cataplexy (individuals with NT1): trends for decreasing cataplexy; wakefulness (individuals with NT1): substantial levels of increased wakefulness

Question: Which “sleep-onset REM periods and cataplexy-like events” value (OX2R [4]; NT1 mouse model) does the source give for `COc1ccc(-c2cccc(C(=O)N(C)C)c2)cc1S(=O)(=O)Nc1cccc(NCCNC(=O)c2ccccc2N(C)C)c1` [YNT-185] here?
Answer: decreases sleep-onset REM periods and cataplexy-like events

Question: What about the wakefulness (OX2R [4]; intraperitoneally or ICV, wild type (WT) and orexin ligand-deficient mice) of the same molecule?
Answer: modestly increases wakefulness

Question: With “orexin A (QPLPDCCRQKTCSCRLYELLHGAGNHAAGILTL; ends and bridges not checked; cysteine pairing not given here; UniProt O43612 34-66, looked up) [orexin A (OXA), orexin neuropeptide cleaved from prepro-orexin]” as the molecule, how does the cataplexy-like behavior [5] read?
Answer: decreases cataplexy-like behavior

Question: What about the time spent awake [5] of the same molecule?
Answer: increase time spent awake
